{
  "source": "patent US20070225338A1",
  "about": "“Juvenile Hormone Analogs for Control of Leafhopper and Treehopper Pests” (priority 2004, published 2007)",
  "key": {"GWSS": {"test_system": "GWSS", "conditions": "cited from earlier work; for efficacy against GWSS (CDFA nursery shipping protocol list): in vivo; for speed of activity against GWSS: tested over several weeks, Redak and Bethke"}, "[1]": {"test_system": "Homalodisca coagulata females", "assay": "Example 4: mortality of JH analog-treated field-collected gravid females", "type": "in vivo", "conditions": "10 days post-treatment, fifteen females per treatment", "procedure": "The treatment rates for all three: methoprene, kinoprene, and hydroprene are listed below.\nThis example summarizes two ongoing tests involving field-collected gravid females and eggs oviposited less than 24 hours prior to treatment. […] After eclosion the neonates will be held on host plants until death or successful development to the second instar, which ever occurs first.\nFifteen females were used for each treatment. […] The females will be dissected to determine if there are sub-lethal effects of the JH analogs on the reproductive system."}, "GWSS females": {"test_system": "GWSS females", "assay": "Treatment of reproductively-active females", "type": "in vivo, Homalodisca coagulata", "conditions": "following weeks of evaluation"}, "GWSS nymphs": {"test_system": "GWSS nymphs", "assay": "Treatment of GWSS nymphs", "type": "in vivo, Homalodisca coagulata"}, "[2]": {"test_system": "egg parasitoids, Gonatocerus spp.", "assay": "Impact on egg parasitoids", "conditions": "non-target Gonatocerus spp."}, "H. coagulata": {"test_system": "H. coagulata", "assay": "Example 2: newly-eclosed adult females treated with compound, dissection after 36 days", "type": "in vivo, Homalodisca coagulata", "procedure": "(§1) As described in Examples 1 and 2, the inventors topically applied methoprene in an aqueous solution to GWSS females that were: 1) over-wintering in reproductive diapause or 2) females that were newly eclosed adults and not yet reproductively active. […] Untreated females ordinarily will begin reproductive cycles 10-12 days post eclosion.\nSeven newly eclosed adult female H. coagulata were treated with the compound. The solution was applied with an aerosol device until individuals were noticeable wet. After treatment, female were placed into a wooden 1 m-screened cage that was provisioned with crape myrtle, eastern saltbush, and soybean. Five males of unknown ages were added to the cage. Female were dissected after 36 days. Males were discarded."}, "[3]": {"test_system": "Homalodisca coagulata (Say)", "assay": "Example 1: females in diapause sprayed with compound, oviposition and dissection of reproductive system", "type": "in vivo", "source_text": "as §1\nTen female Homalodisca coagulata (Say) were sprayed until visibly wet with the candidate compound. They were then placed into a wooden 1 m screened cage that was provisioned with five males and glabrous soybean, Glycine max (L.) A similar untreated control cage was also set up with females sprayed with distilled water. All leafhoppers were taken from a greenhouse culture and were in the process of terminating winter reproductive diapause. Females were checked daily for the presence of brochosomes and plants were checked for egg masses. Cages were in a greenhouse maintained at 32° C. and equipped with artificial lighting for a 14:10 photoperiod. Surviving females were dissected after thirty days and their reproductive status was evaluated."}, "[4]": {"test_system": "Draeculacephala crassicornis", "conditions": "topical, substrate and vapor treatments; cited from earlier work"}, "[5]": {"conditions": "treatment A: 1/100 of recommended dose"}, "[6]": {"conditions": "treatment B: 1/10 of recommended dose"}, "[7]": {"conditions": "treatment D: 10× recommended dose"}, "[8]": {"conditions": "newly eclosed adult females, one value per female, 36 days post-treatment"}, "[9]": {"conditions": "treated diapausing females, one value per surviving female, dissected after thirty days"}},
  "note": "Where “and” joins values, the source holds several entries; their conditions need not be identical. Identical values can stand only once.",
  "data": [
    {"smiles": "COP(=O)(NC(C)=O)SC", "note": "(stereo not shown) [acephate]", "values": [
      {"measurement": "efficacy against GWSS (CDFA nursery shipping protocol list)", "setting": "GWSS", "result": "some efficacy"}
    ]},
    {"smiles": "CC1(C)C(C=C(Cl)Cl)C1C(=O)OCc1cccc(Oc2ccccc2)c1", "note": "(stereo not shown) [permethrin]", "values": [
      {"measurement": "efficacy against GWSS (CDFA nursery shipping protocol list)", "setting": "GWSS", "result": "some efficacy"}
    ]},
    {"smiles": "O=C(NC(=O)c1c(F)cccc1F)Nc1ccc(OC(F)(F)C(F)OC(F)(F)F)c(Cl)c1", "note": "(stereo not shown) [novaluron]", "values": [
      {"measurement": "speed of activity against GWSS", "setting": "GWSS", "result": "too slow to be useful for eradication purposes"}
    ]},
    {"smiles": "O=[N+]([O-])NC1=NCCN1Cc1ccc(Cl)nc1", "note": "[imidaclopid]", "values": [
      {"measurement": "efficacy against GWSS (CDFA nursery shipping protocol list)", "setting": "GWSS", "result": "some efficacy"}
    ]},
    {"smiles": "CC1(C)[C@H](C(=O)O[C@H](C#N)c2cccc(Oc3ccccc3)c2)[C@@H]1C=C(Br)Br", "note": "[deltamethrin]", "values": [
      {"measurement": "efficacy against GWSS (CDFA nursery shipping protocol list)", "setting": "GWSS", "result": "some efficacy"}
    ]},
    {"smiles": "Cc1c(COC(=O)[C@@H]2[C@H](/C=C(\\Cl)C(F)(F)F)C2(C)C)cccc1-c1ccccc1", "note": "(racemic) [bifenthrin]", "values": [
      {"measurement": "efficacy against GWSS (CDFA nursery shipping protocol list)", "setting": "GWSS", "result": "some efficacy"}
    ]},
    {"smiles": "CCOP(=S)(OCC)Oc1nc(Cl)c(Cl)cc1Cl", "note": "[chlorpyrifos]", "values": [
      {"measurement": "efficacy against GWSS (CDFA nursery shipping protocol list)", "setting": "GWSS", "result": "some efficacy"}
    ]},
    {"smiles": "CC1(C)C(C(=O)OC(C#N)c2cccc(Oc3ccccc3)c2)C1(C)C", "note": "(stereo not shown) [fenpropathrin]", "values": [
      {"measurement": "efficacy against GWSS (CDFA nursery shipping protocol list)", "setting": "GWSS", "result": "some efficacy"}
    ]},
    {"smiles": "CC(COc1ccc(Oc2ccccc2)cc1)Oc1ccccn1", "note": "(racemic) [pyriproxifen, 4-phenoxyphenyl (RS)-2-(2-pyridyloxy)propyl ether]", "values": [
      {"measurement": "speed of activity against GWSS", "setting": "GWSS", "result": "too slow to be useful for eradication purposes"}
    ]},
    {"smiles": "CNC(=O)Oc1cccc2ccccc12", "note": "[carbaryl]", "values": [
      {"measurement": "efficacy against GWSS (CDFA nursery shipping protocol list)", "setting": "GWSS", "result": "some efficacy"}
    ]},
    {"smiles": "CNC(=O)Oc1cc(C)c(SC)c(C)c1", "note": "[methiocarb]", "values": [
      {"measurement": "efficacy against GWSS (CDFA nursery shipping protocol list)", "setting": "GWSS", "result": "some efficacy"}
    ]},
    {"smiles": "CCOC(=O)/C=C(C)/C=C/CC(C)CCCC(C)C", "note": "(stereo not shown) [hydroprene, ethyl (2E,4E)-3,7,11-trimethyl-2,4-dodecadienoate]", "values": [
      {"measurement": "number of dead female Homalodisca coagulata", "setting": "[1]; [5]", "result": 3},
      {"measurement": "number of dead female Homalodisca coagulata", "setting": "[1]; [6]", "result": 0},
      {"measurement": "number of dead female Homalodisca coagulata", "setting": "[1]; treatment C: recommended dose", "result": 0},
      {"measurement": "number of dead female Homalodisca coagulata", "setting": "[1]; [7]", "result": 14}
    ]},
    {"smiles": "CC1(C)C(C=C(Cl)Cl)C1C(=O)OC(C#N)c1ccc(F)c(Oc2ccccc2)c1", "note": "(stereo not shown) [cyfluthrin]", "values": [
      {"measurement": "efficacy against GWSS (CDFA nursery shipping protocol list)", "setting": "GWSS", "result": "some efficacy"}
    ]},
    {"smiles": "CC(C)N1C(=O)N(c2ccccc2)CS/C1=N\\C(C)(C)C", "note": "[buprofizen]", "values": [
      {"measurement": "speed of activity against GWSS", "setting": "GWSS", "result": "too slow to be useful for eradication purposes"}
    ]},
    {"smiles": "COC(C)(C)CCC[C@H](C)C/C=C/C(C)=C/C(=O)OC(C)C", "note": "[methoprene, isopropyl (2E,4E)-11-methoxy-3,7,11-trimethyl-2-2,4-dodecadienoate]", "values": [
      {"measurement": "oviposition of treated reproductively-active females", "setting": "GWSS females", "result": "oviposited the eggs they contained then stopped"},
      {"measurement": "effect of treating nymphs (mortality, time of development, morphology)", "setting": "GWSS nymphs", "result": "did not cause mortality, increase or decrease time of development, or induce morphological aberrations"},
      {"measurement": "number of dead female Homalodisca coagulata", "setting": "[1]; [5]", "result": 0},
      {"measurement": "number of dead female Homalodisca coagulata", "setting": "[1]; [6]", "result": 0},
      {"measurement": "number of dead female Homalodisca coagulata", "setting": "[1]; treatment C: recommended dose", "result": 0},
      {"measurement": "number of dead female Homalodisca coagulata", "setting": "[1]; [7]", "result": 0},
      {"measurement": "impact on egg parasitoids", "setting": "[2]", "result": "no impact"},
      {"measurement": "time without egg production post-treatment", "setting": "H. coagulata; 36 days was the maximum time tested", "result": "at least 36 days"},
      {"measurement": "accumulated fat body in treated females", "setting": "H. coagulata; dissection of adult females", "result": "high amount of accumulated fat body"},
      {"measurement": "effect on development of brochosomes and ovarioles", "setting": "H. coagulata; dissection of reproductive system of adult females", "result": "inhibits the development of both brochosomes and ovarioles"},
      {"measurement": "Brochosomes", "setting": "H. coagulata; [8]", "result": "1 and 1.5"},
      {"measurement": "Fat body", "setting": "H. coagulata; [8]", "result": "2.5 and 1.5 and 2"},
      {"measurement": "Ova", "setting": "H. coagulata; [8]", "result": 1},
      {"measurement": "Ovarioles", "setting": "H. coagulata; [8]", "result": 2},
      {"measurement": "eggs produced by treated females", "setting": "H. coagulata; newly eclosed females, 36 days", "result": "no eggs were produced"},
      {"measurement": "ovariole (reproductive) development on dissection", "setting": "H. coagulata; newly eclosed females, 36 days", "result": "inhibited"},
      {"measurement": "egg development and oviposition after treatment", "setting": "H. coagulata; newly eclosed females, after 36 days of summer conditions, untreated begin 10-12 days post eclosion", "result": "did not develop eggs or oviposit"},
      {"measurement": "reproductive activity of surviving treated females on dissection", "setting": "[3]; after 30 days", "result": "had not begun reproductive activity"},
      {"measurement": "eggs produced by treated females", "setting": "[3]; diapausing females, 30 days", "result": "No eggs were produced"},
      {"measurement": "time treated females remained reproductively inactive", "setting": "[3]; diapausing females, topical aqueous solution, summer conditions (32° C., 14:10 L:D), untreated controls oviposit after 10 days", "result": "at least 30 days"},
      {"measurement": "Brochosomes (within Malpigian tubules)", "setting": "[3]; [9]", "result": 1},
      {"measurement": "Fat body", "setting": "[3]; [9]", "result": 2},
      {"measurement": "Ova", "setting": "[3]; [9]", "result": 1},
      {"measurement": "Ovarioles", "setting": "[3]; treated diapausing females, one value per surviving female, dissected after thirty days, 32° C., 14:10 photoperiod", "result": 2}
    ]},
    {"smiles": "C#CCOC(=O)/C=C(C)/C=C/CC(C)CCCC(C)C", "note": "[kinoprene, 2-propynl (2E,4E)-(7S)-3,7,11-trimethyl-2,4-dodecadienoate]", "values": [
      {"measurement": "number of dead female Homalodisca coagulata", "setting": "[1]; [5]", "result": 1},
      {"measurement": "number of dead female Homalodisca coagulata", "setting": "[1]; [6]", "result": 1},
      {"measurement": "number of dead female Homalodisca coagulata", "setting": "[1]; treatment C: recommended dose", "result": 0},
      {"measurement": "number of dead female Homalodisca coagulata", "setting": "[1]; [7]", "result": 0}
    ]},
    {"smiles": "COC(=O)C=C(C)CCC=C(C)CCC1OC1(C)C", "note": "(stereo not shown) [Juvenile hormone III]", "values": [
      {"measurement": "effect on diapause", "setting": "[4]", "result": "terminated diapause"}
    ]}
  ]
}
